Laboratory results from US20230212222A1 (ANYGEN CO., LTD., priority 2020, published 2023).
Square brackets hold non-standard residues; d marks the D form. Peptide text beside a SMILES is read from it. * marks the point of attachment. His(Trt) = N[C@@H](Cc1cn(C(c2ccccc2)(c2ccccc2)c2ccccc2)cn1)C(=O)O; His(τ-CHPh2) = N[C@@H](Cc1cn(C(c2ccccc2)c2ccccc2)cn1)C(=O)O; Tyr(3-NO2) = N[C@@H](Cc1ccc(O)c([N+](=O)[O-])c1)C(=O)O; His(τ-Bzl) = N[C@@H](Cc1cn(Cc2ccccc2)cn1)C(=O)O; Tyr(3-Cl) = N[C@@H](Cc1ccc(O)c(Cl)c1)C(=O)O; dPhe(4-Me) = Cc1ccc(C[C@@H](N)C(=O)O)cc1; Palmitoyl = CCCCCCCCCCCCCCCC(=O)*; Octanoyl = CCCCCCCC(=O)*

Target: T1, GPR39 (Homo sapiens, UniProt O43194)
T1 sequence (O43194 1-453): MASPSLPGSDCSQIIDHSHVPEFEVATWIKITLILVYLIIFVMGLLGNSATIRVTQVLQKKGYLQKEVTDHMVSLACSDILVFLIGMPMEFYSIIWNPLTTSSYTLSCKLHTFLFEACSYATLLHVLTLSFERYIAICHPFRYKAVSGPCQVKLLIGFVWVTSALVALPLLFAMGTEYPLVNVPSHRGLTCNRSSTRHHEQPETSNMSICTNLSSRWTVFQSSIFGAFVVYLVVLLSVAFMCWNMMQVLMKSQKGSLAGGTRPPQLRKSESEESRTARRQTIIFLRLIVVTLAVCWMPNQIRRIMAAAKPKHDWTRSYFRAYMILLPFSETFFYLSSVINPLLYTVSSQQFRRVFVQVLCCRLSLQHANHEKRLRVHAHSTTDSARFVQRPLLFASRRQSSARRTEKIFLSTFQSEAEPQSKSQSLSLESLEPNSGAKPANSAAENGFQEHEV
Experimental: Specifically, the fibroblast cell line CV-1 (1×10^5 cells/ml, Korea Cell Line Bank) was cultured in a 96 well cell culture plate for 24 hours, and then treated with GPR39 inserted into adenovirus and SRE (serum response element) luciferase at 50 MOI (multiplicity of infection) and 25 MOI virus for 3 hours, respectively, and then cultured for 24 hours.

## CCCCCCCC(=O)NCCCC[C@H](NC(=O)[C@@H](N)Cc1cn(C(c2ccccc2)(c2ccccc2)c2ccccc2)cn1)C(=O)N[C@@H](Cc1ccccc1)C(=O)N[C@@H](Cc1ccc(O)cc1)C(=O)N[C@@H](CO)C(=O)N[C@@H](CC(=O)O)C(=O)N[C@@H](CCC(N)=O)C(=O)N[C@@H](CCC(N)=O)C(=O)N[C@@H](C)C(=O)N[C@@H](CCCNC(=N)N)C(=O)N[C@@H](Cc1ccccc1)C(N)=O [HKFY-38, (3S,6S,9S,12S,15S)-15-((S)-2-amino-3-(1-trityl-1H-imidazol-4-yl)propanamido)-12-benzyl-3-(((6S,9S,12S,15S)-1,18-diamino-6-(((S)-1-amino-1-oxo-3-phenylpropan-2-yl)carbamoyl)-12-(3-amino-3-oxopropyl)-1-imino-9-methyl-8,11,14,18-tetraoxo-2,7,10,13-tetraazaoctadecan-15-yl)carbamoyl)-9-(4-hydroxybenzyl)-6-(hydroxymethyl)-5,8,11,14,21-pentaoxo-4,7,10,13,20-pentaazaoctacosanoic acid] (H-[His(Trt)]K(Octanoyl)FYSDQQARF-NH2)
  ECmax (-fold induction over basal): 16.5 ± 0.02 -fold induction over basal

## CCCCCCCC(=O)NCCCC[C@H](NC(=O)[C@@H](N)Cc1cn(C(c2ccccc2)(c2ccccc2)c2ccccc2)cn1)C(=O)N[C@@H](Cc1ccccc1)C(=O)N[C@@H](Cc1ccc(O)cc1)C(=O)N[C@@H](CCC(N)=O)C(=O)N[C@@H](CC(N)=O)C(=O)N[C@@H](CCC(N)=O)C(=O)N[C@@H](C)C(=O)N[C@@H](CCCNC(=N)N)C(=O)N[C@@H](Cc1ccccc1)C(N)=O [HKFY-43, (S)-N1-((S)-1-(((S)-1-(((S)-1-amino-1-oxo-3-phenylpropan-2-yl)amino)-5-guanidino-1-oxopentan-2-yl)amino)-1-oxopropan-2-yl)-2-((2S,5S,8S,11S,14S)-2-(2-amino-2-oxoethyl)-14-((S)-2-amino-3-(1-trityl-1H-imidazol-4-yl)propanamido)-5-(3-amino-3-oxopropyl)-11-benzyl-8-(4-hydroxybenzyl)-4,7,10,13,20-pentaoxo-3,6,9,12,19-pentaazaheptacosanamido)pentanediamide] (H-[His(Trt)]K(Octanoyl)FYQNQARF-NH2)
  ECmax (-fold induction over basal): 12.1 ± 0.02 -fold induction over basal

## CCCCCCCC(=O)NCCCC[C@H](NC(=O)[C@@H](N)Cc1cn(Cc2ccccc2)cn1)C(=O)N[C@@H](Cc1ccccc1)C(=O)N[C@@H](Cc1ccc(O)cc1)C(=O)O [HKFY-3, N2-(Nt-benzyl-L-histidyl)-N6-octanoyl-L-lysyl-L-phenylalanyl-L-tyrosine] (H-[His(τ-Bzl)]K(Octanoyl)FY-OH)
  ECmax (-fold induction over basal): 9.2 ± 2.58 -fold induction over basal

## CCCCCCCC(=O)NCCCC[C@H](NC(=O)[C@@H](N)Cc1cn(C(c2ccccc2)(c2ccccc2)c2ccccc2)cn1)C(=O)N[C@@H](Cc1ccc(O)cc1)C(=O)N[C@@H](Cc1ccc(O)cc1)C(=O)O [HKFY-48, N6-octanoyl-N2-(Nt-trityl-L-histidyl)-L-lysyl-L-tyrosyl-L-tyrosine] (H-[His(Trt)]K(Octanoyl)YY-OH)
  ECmax (-fold induction over basal): 14.4 ± 2.7 -fold induction over basal

## CCCCCCCC(=O)NCCCC[C@H](NC(=O)[C@@H](N)Cc1cn(C(c2ccccc2)(c2ccccc2)c2ccccc2)cn1)C(=O)N[C@@H](Cc1ccccc1)C(=O)N[C@@H](CO)C(=O)O [HKFY-50, N6-octanoyl-N2-(Nt-trityl-L-histidyl)-L-lysyl-L-phenylalanyl-L-serine] (H-[His(Trt)]K(Octanoyl)FS-OH)
  ECmax (-fold induction over basal): 16.2 ± 1.5 -fold induction over basal

## CCCCCCCC(=O)NCCCC[C@H](NC(=O)[C@H](CO)NC(=O)CNC(=O)[C@@H](N)Cc1cn(C(c2ccccc2)(c2ccccc2)c2ccccc2)cn1)C(=O)N[C@@H](Cc1ccccc1)C(=O)N[C@@H](Cc1ccc(O)cc1)C(=O)O [HKFY-53, N6-octanoyl-N2-(Nt-trityl-L-histidylglycyl-L-seryl)-L-lysyl-L-phenylalanyl-L-tyrosine] (H-[His(Trt)]GSK(Octanoyl)FY-OH)
  ECmax (-fold induction over basal): 8 ± 2.12 -fold induction over basal

## CCCCCCCC(=O)NCCCC[C@H](NC(=O)[C@@H](N)Cc1cn(CCc2ccccc2)cn1)C(=O)N[C@@H](Cc1ccccc1)C(=O)N[C@@H](Cc1ccc(O)cc1)C(=O)O [HKFY-19, N6-octanoyl-N2-(Nt-phenethyl-L-histidyl)-L-lysyl-L-phenylalanyl-L-tyrosine]
  ECmax (-fold induction over basal): 18 ± 1.7 -fold induction over basal

## CCCCCCCC(=O)NCCCC[C@H](NC(=O)[C@@H](N)Cc1cn(-c2ccccc2)c(-c2ccccc2)n1)C(=O)N[C@H](Cc1ccc(C)cc1)C(=O)N[C@@H](Cc1ccc(O)cc1)C(=O)O [HKFY-59, ((R)-2-((S)-2-((S)-2-amino-3-(1,2-diphenyl-1H-imidazol-4-yl)propanamido)-6-octanamidohexanamido)-3-(p-tolyl)propanoyl)-L-tyrosine]
  ECmax (-fold induction over basal): 6.76 ± 2.2 -fold induction over basal

## CCCCCCCC(=O)NCCCC[C@H](NC(=O)[C@@H](N)Cc1cn(C(c2ccccc2)c2ccccc2)cn1)C(=O)N[C@H](Cc1ccc(C)cc1)C(=O)N[C@@H](Cc1ccc(O)c(Cl)c1)C(=O)O [HKFY-67, (S)-2-((R)-2-((S)-2-((S)-2-amino-3-(1-benzhydryl-1H-imidazol-4-yl)propanamido)-6-octanamidohexanamido)-3-(p-tolyl)propanamido)-3-(3-chloro-4-hydroxyphenyl)propanoic acid] (H-[His(τ-CHPh2)]K(Octanoyl)[dPhe(4-Me)][Tyr(3-Cl)]-OH)
  ECmax (-fold induction over basal): 10.2 ± 1.51 -fold induction over basal

## CCCCCCCC(=O)NCCCC[C@H](NC(=O)[C@@H](N)Cc1cn(CCc2ccccc2)cn1)C(=O)N[C@@H](Cc1ccccc1)C(=O)N[C@@H](Cc1ccc(O)cc1)C(=O)O [HKFY-9, N6-octanoyl-N2-(Nt-phenethyl-L-histidyl)-L-lysyl-L-phenylalanyl-L-tyrosine]
  ECmax (-fold induction over basal): 21 ± 2.52 -fold induction over basal

## CCCCCCCC(=O)NCCCC[C@H](NC(=O)[C@@H](N)Cc1cn(C(c2ccccc2)c2ccccc2)cn1)C(=O)N[C@H](Cc1ccc(C)cc1)C(=O)N[C@@H](Cc1ccc(O)c([N+](=O)[O-])c1)C(=O)O [HKFY-68, (S)-2-((R)-2-((S)-2-((S)-2-amino-3-(1-benzhydryl-1H-imidazol-4-yl)propanamido)-6-octanamidohexanamido)-3-(p-tolyl)propanamido)-3-(4-hydroxy-3-nitrophenyl)propanoic acid] (H-[His(τ-CHPh2)]K(Octanoyl)[dPhe(4-Me)][Tyr(3-NO2)]-OH)
  ECmax (-fold induction over basal): 10.8 ± 1.41 -fold induction over basal

## CCCCCCCC(=O)NCCCC[C@H](NC(=O)[C@@H](N)Cc1c[nH]c(-c2ccc(C(C)(C)C)cc2)n1)C(=O)N[C@H](Cc1ccc(C)cc1)C(=O)N[C@@H](Cc1ccc(O)cc1)C(=O)O [HKFY-60, ((R)-2-((S)-2-((S)-2-amino-3-(2-(4-(tert-butyl)phenyl)-1H-imidazol-4-yl)propanamido)-6-octanamidohexanamido)-3-(p-tolyl)propanoyl)-L-tyrosine]
  ECmax (-fold induction over basal): 28.2 ± 2.5 -fold induction over basal

## CCCCCCCCCCCCCCCC(=O)NCCCC[C@H](NC(=O)[C@@H](N)Cc1cn(C(c2ccccc2)(c2ccccc2)c2ccccc2)cn1)C(=O)N[C@@H](Cc1ccccc1)C(=O)N[C@@H](Cc1ccc(O)cc1)C(=O)O [HKFY-27, N6-palmitoyl-N2-(Nt-trityl-L-histidyl)-L-lysyl-L-phenylalanyl-L-tyrosine] (H-[His(Trt)]K(Palmitoyl)FY-OH)
  ECmax (-fold induction over basal): 20.4 ± 0.57 -fold induction over basal

## CCCCCCCC(=O)NCCCC[C@H](NC(=O)[C@@H](N)Cc1cn(C(c2ccccc2)(c2ccccc2)c2ccccc2)cn1)C(=O)N[C@@H](Cc1ccccc1)C(=O)O [HKFY-49, N6-octanoyl-N2-(Nt-trityl-L-histidyl)-L-lysyl-L-phenylalanine] (H-[His(Trt)]-Lys(Octanoyl)-Phe-OH)
  ECmax (-fold induction over basal): 18.3 ± 1.8 -fold induction over basal

## CCCCCCCC(=O)NCCCC[C@H](NC(=O)[C@@H](N)Cc1cn(C(c2ccccc2)c2ccc(F)cc2F)cn1)C(=O)N[C@H](Cc1ccc(C)cc1)C(=O)N[C@@H](Cc1ccc(O)cc1)C(=O)O (stereo partly drawn) [HKFY-32, ((2R)-2-((2S)-2-((2S)-2-amino-3-(1-((2,4-difluorophenyl)(phenyl)methyl)-1H-imidazol-4-yl)propanamido)-6-octanamidohexanamido)-3-(p-tolyl)propanoyl)-L-tyrosine]
  ECmax (-fold induction over basal): 21.5 ± 2.7 -fold induction over basal

## CCCCCCCC(=O)NCCCC[C@H](NC(=O)[C@@H](N)Cc1cn(C(c2ccccc2)c2ccccc2)cn1)C(=O)O [HKFY-79, N2-(Nt-benzhydryl-L-histidyl)-N6-octanoyl-L-lysine]
  ECmax (-fold induction over basal): 11.2 ± 1.4 -fold induction over basal

## CCCCCCCC(=O)NCCCC[C@H](NC(=O)[C@@H](N)Cc1cn(C(c2ccccc2)c2ccc(OC)cc2)cn1)C(=O)N[C@@H](Cc1ccccc1)C(=O)N[C@@H](Cc1ccc(O)cc1)C(=O)O (stereo partly drawn) [HKFY-20, N2-(Nt-((4-methoxyphenyl)(phenyl)methyl)-L-histidyl)-N6-octanoyl-L-lysyl-L-phenylalanyl-L-tyrosine]
  ECmax (-fold induction over basal): 20.26 ± 2.7 -fold induction over basal
